Series [1] is described as follows: log P by HPLC on a reversed-phase column (C 18), EEC Directive 79/831 Annex V.A8. Type of series: physicochemical. The settings on record: logP. The procedure, abridged:
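Calibration relied on straight-chain alkan-2-ones with 3 to 16 carbon atoms and known log P, with sample values read by linear interpolation of retention time between two adjacent standards. Separation at 40° C used 0.1% aqueous formic acid with acetonitrile rising linearly from 10% to 90%. UV spectra from 200 nm to 400 nm at chromatographic peak maxima gave lambda-max.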

The subject of series [2] is Blumeria graminis f.sp. hordei. Briefly: In vivo preventive test on Blumeria graminis (barley). The settings on record: 500 ppm of active ingredient, evaluated 7 days after inoculation. As to the method:
In Vivo Preventive Test on Blumeria graminis (Barley) [table] To produce a suitable preparation of active compound, 1 part by weight of active compound or active compound combination is mixed with the stated amounts of solvent and emulsifier, and the concentrate is diluted with water to the desired concentration. To test for preventive activity, young plants are sprayed with the preparation of active compound or active compound combination at the stated rate of application. After the spray coating has been dried, the plants are dusted with spores of Blumeria graminis f.sp. hordei.

For a further series, the system named is Alternaria brassicae. Description: In vivo preventive test on Alternaria brassicae (leaf spot on radish). The settings on record: 500 ppm of active ingredient; radish plants; 6 days after contamination. The procedure, abridged: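 Radish plants at cotyledon stage were sprayed with compound; controls got the acetone/tween/DMSO/water mix alone. After 24 h they were inoculated with Alternaria brassicae spores (50 000 spores per mL) and kept at 20 °C, 100% relative humidity. % efficacy versus controls was graded 6 days post-inoculation.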

Another series relates to Puccinia recondita. Briefly: In vivo preventive test on Puccinia recondita (brown rust on wheat). The settings on record: 500 ppm of active ingredient; wheat plants; 12 days after contamination. The procedure, abridged: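 Wheat plants ("Scipion") at 1-leaf stage, grown at 22° C, were sprayed with compound, then inoculated 24 h later with Puccinia recondita spores (100 000 spores per mL). Efficacy (%) graded 12 days after inoculation relative to solvent-treated controls.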

The subject of the next series is Septoria tritici. Briefly: In vivo preventive test on Septoria tritici (wheat). As to conditions: 500 ppm of active ingredient; wheat plants; 24 days after contamination. The procedure, abridged:
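Scipion wheat grown at 22° C, sprayed at 1-leaf stage (10 cm); controls received acetone/tween/DMSO/water without active. Inoculated 24 h later with S. tritici spores (500 000/mL), held 72 h at 18° C, 100% RH, then 21 days at 90% RH. % efficacy vs controls scored 24 days post-inoculation.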

A further series concerns Sphaerotheca fuliginea. Briefly: In vivo preventive test on Sphaerotheca fuliginea (powdery mildew on cucurbits). The settings on record: Podosphaera fuliginea, 288 h, 500 ppm of active ingredient; gherkin plants; 12 days after contamination; read-out: Efficacy. The procedure, abridged:
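Gherkin plants ("Vert petit de Paris") grown at 24 °C were sprayed at cotyledon stage Z11; controls received acetone/tween/DMSO/water without active. Inoculation 24 h later by spraying cotyledons with 100 000 spores/mL. Efficacy (%) graded 12 days post-contamination versus controls.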

The test system of a further series is Uromyces appendiculatus. Briefly: In vivo preventive test on Uromyces appendiculatus (bean rust). The settings on record: 500 ppm of active ingredient; bean plants; 11 days after contamination. The method, boiled down: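 Saxa bean plants at 2-leaf stage, grown at 24° C., sprayed preventively with compound; 24 h later inoculated with U. appendiculatus spores (150 000 spores per mL). Percent efficacy graded 11 days after inoculation versus solvent-treated controls.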

A further series deals with Venturia inaequalis. Description: In vivo preventive test on Venturia inaequalis (apples). As to conditions: 100 ppm of active ingredient, evaluated 10 days after inoculation. The method, then:
In Vivo Preventive Test on Venturia inaequalis (apples) [table] To produce a suitable preparation of active compound, 1 part by weight of active compound is mixed with the stated amounts of solvent and emulsifier, and the concentrate is diluted with water to the desired concentration. To test for preventive activity, young plants are sprayed with the preparation of active compound at the stated rate of application. After the spray coating has dried on, the plants are inoculated with an aqueous conidia suspension of the causal agent of apple scab (Venturia inaequalis) and then remain for 1 day in an incubation cabinet at approximately 20° C. and a relative atmospheric humidity of 100%. The plants are then placed in a greenhouse at approximately 21° C. and a relative atmospheric humidity of approximately 90%.

As for `CC(C)c1ccc(-c2csc3ccccc23)cc1CN(C(=O)c1c(C(F)F)nn(C)c1F)C1CC1` [I.157, N-[5-(1-benzothiophen-3-yl)-2-isopropylbenzyl]-N-cyclopropyl-3-(difluoromethyl)-5-fluoro-1-methyl-1H-pyrazole-4-carboxamide], the chromatographic logP in series [1] turned out to be 5.17. The Efficacy in series [2] is listed as 100%; with Alternaria brassicae it was 100%; in the series on Puccinia recondita, 98%; in the series on Septoria tritici it was 90%; in the series with Uromyces appendiculatus it was 100%; in the series on Venturia inaequalis, 100%. Further, the pest or weed control at 500 ppm in the series on Sphaerotheca fuliginea amounted to 100%.

These data come from patent US10125126B2, “N-cycloalkyl-N-[(heterocyclylphenyl)methylene]-(thio)carboxamide derivatives” (BAYER CROPSCIENCE AG, priority 2012, dated 2018).
